Experiment [1] addresses human RORγt ligand binding domain (RORγt LBD) (Homo sapiens (Human), UniProt P51449). The experiment is described as follows: RORγt ThermoFluor® assay (thermal shift binding). The note with it: read-out: ThermoFluor® Assay, Kd. The method in brief:
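Binding was inferred from thermal stabilisation (ΔTm) of the E. coli-expressed RORγt LBD (0.065 mg/mL), monitored by 1,8-ANS (60 μM) emission at 500 nm during a 1 °C/min ramp. Buffer was Hepes 100 mM pH 7.0 with NaCl, GSH and Tween-20.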

A further experiment deals with full-length human RORγt (Homo sapiens (Human), UniProt P51449). In words: RORγt (full-length human) reporter assay, Conditions B or C. As to conditions: for inhibition at 6 µM: read-out: RORγt (FL) Reporter Assay B or C, % inhibition @ 6 μM, Conditions B or C; for inhibition at 3 µM: at 3 μM compound concentration; for RORγt (FL) Reporter Assay B or C, % inhibition (value marked *): marked *: footnote not given. It is filed as cell-based. The gist of the method: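 Readout is dual luciferase: firefly (GAL4-driven) normalized to DMSO-only and saturating-reference controls, then to CMV-Renilla. Full-length human RORγt fused to GAL4-DBD was transiently expressed in HEK293T; compound exposure ran overnight (16-20 h) starting 4-6 h after transfection, final FBS 1.3%, DMSO 0.1%.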
On the technique in general: In a reporter assay the amount or activity of a reporter protein is the signal.

Setting [2] is: Conditions B or C, read-out: RORγt (FL) Reporter Assay B or C, IC50.
The mark [3] stands for this setting: read-out: RORγt (FL) Reporter Assay B or C, % inhibition.
The mark [4] stands for this setting: read-out: RORγt (FL) Reporter Assay B or C, IC50.

Structures are written as SMILES. Where two headings read alike, the source gives them in different places.

This is an account of results in patent US10975068B2, “6-aminopyridin-3-yl thiazoles as modulators of RORγT” (Janssen Pharmaceutica NV, priority 2016, dated 2021).

Chain of human RORγt ligand binding domain (RORγt LBD) (P51449 other isoform, or with tags, fused parts or gaps): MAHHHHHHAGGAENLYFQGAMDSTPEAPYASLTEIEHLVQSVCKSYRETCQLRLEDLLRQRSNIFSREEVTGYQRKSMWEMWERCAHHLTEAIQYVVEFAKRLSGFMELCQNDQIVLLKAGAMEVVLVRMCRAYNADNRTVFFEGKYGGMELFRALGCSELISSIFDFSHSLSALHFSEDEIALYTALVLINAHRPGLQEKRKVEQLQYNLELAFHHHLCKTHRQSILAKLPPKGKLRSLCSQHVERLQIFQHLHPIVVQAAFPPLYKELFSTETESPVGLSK
Chain of full-length human RORγt (P51449 other isoform, or with tags, fused parts or gaps): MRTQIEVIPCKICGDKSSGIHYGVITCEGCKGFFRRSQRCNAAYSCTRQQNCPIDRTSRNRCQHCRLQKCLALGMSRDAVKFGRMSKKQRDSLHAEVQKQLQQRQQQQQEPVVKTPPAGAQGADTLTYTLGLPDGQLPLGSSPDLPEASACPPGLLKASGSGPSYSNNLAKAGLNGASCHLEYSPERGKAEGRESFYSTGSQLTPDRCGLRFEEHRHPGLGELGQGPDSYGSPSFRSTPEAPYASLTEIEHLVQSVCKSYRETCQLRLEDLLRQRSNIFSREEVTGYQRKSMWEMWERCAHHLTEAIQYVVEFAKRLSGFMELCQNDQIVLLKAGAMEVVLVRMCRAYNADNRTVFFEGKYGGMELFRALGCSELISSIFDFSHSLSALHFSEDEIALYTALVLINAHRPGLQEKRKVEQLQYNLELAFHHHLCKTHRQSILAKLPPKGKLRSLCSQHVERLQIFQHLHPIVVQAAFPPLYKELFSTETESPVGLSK

Consider `C[C@H]1CCCN1C(=O)c1nc(C(=O)NCC(C)(C)O)sc1-c1cnc(N[C@H]2CCCCC2(F)F)cc1C(F)(F)F` (relative stereo) [Example 36, 5-(6-(((S*)-2,2-Difluorocyclohexyl)amino)-4-(trifluoromethyl)pyridin-3-yl)-N-(2-hydroxy-2-methylpropyl)-4-((S)-2-methylpyrrolidine-1-carbonyl)thiazole-2-carboxamide], for which the dissociation constant Kd (commonly the concentration at which binding is half-saturated) in experiment [1] is 1.7 nM. In addition, at full-length human RORγt (setting [2]), the concentration for half-maximal inhibition (IC50) (in general, the concentration that inhibits the measured activity by half) amounted to 0.016 µM. Besides, the inhibition (usually the drop in the measured response relative to a control, in per cent) at 6 µM at full-length human RORγt turned out to be 116%.

On to `C[C@H](NC(=O)c1nc(C(=O)N2C3CCC2CC3)c(-c2cnc(N[C@@H](C3CC3)C(F)(F)F)cc2C(F)F)s1)C(C)(C)O` [Example 317, 4-((1s,4s)-7-Azabicyclo[2.2.1]heptane-7-carbonyl)-5-(6-(((S)-1-cyclopropyl-2,2,2-trifluoroethyl)amino)-4-(difluoromethyl)pyridin-3-yl)-N—((S)-3-hydroxy-3-methylbutan-2-yl)thiazole-2-carboxamide], for which the equilibrium dissociation constant (Kd) in experiment [1] worked out at 2.4 nM. At full-length human RORγt (RORγt (FL) Reporter Assay B or C, IC50), the IC50 worked out at 0.014 µM. For the same compound, the inhibition at 3 µM on full-length human RORγt (setting [3]) was 106%.

Take `C[C@H]1CC(F)(F)CN1C(=O)c1nc(C(=O)NCC(C)(C)O)sc1-c1cnc(NC(C2CC2)C2CC2)cc1C(F)F` [Example 177, (S)-5-(6-((Dicyclopropylmethyl)amino)-4-(difluoromethyl)pyridine-3-yl)-4-(4,4-difluoro-2-methylpyrrolidine-1-carbonyl)-N-(2-hydroxy-2-methylpropyl)thiazole-2-carboxamide]: in experiment [1], the Kd is 0.97 nM. Moreover, at full-length human RORγt (Conditions B or C), the “RORγt (FL) Reporter Assay B or C, % inhibition (value marked *)” value (“RORγt … % inhibition (value marked *)” below) was 117* %. Besides, on full-length human RORγt (setting [2]), the IC50 worked out at 0.0066 µM.

Consider `O=C(N[C@@H]1CC[C@H]1O)c1nc(C(=O)N2C3CCC2CC3)c(-c2cnc(N[C@@H](C3CC3)C(F)(F)F)cc2C(F)F)s1` (relative stereo) [Example 443, 4-((1s,4s)-7-Azabicyclo[2.2.1]heptane-7-carbonyl)-5-(6-(((S)-1-cyclopropyl-2,2,2-trifluoroethyl)amino)-4-(difluoromethyl)pyridin-3-yl)-N-((1R*,2R*)-2-hydroxycyclobutyl)thiazole-2-carboxamide], for which the Kd in experiment [1] was determined as 2.2 nM. Further, the inhibition at 3 µM on full-length human RORγt (setting [3]) turned out to be 107%. In addition, the IC50 at full-length human RORγt (setting [4]) was found to be 0.016 µM.

For `C[C@H]1CCCN1C(=O)c1nc(C(=O)N[C@H](C)C(C)(C)O)sc1-c1cnc(N[C@H](C2CC2)C(F)(F)F)cc1C(F)F` [Example 332, 5-(6-(((R)-1-Cyclopropyl-2,2,2-trifluoroethyl)amino)-4-(difluoromethyl)pyridin-3-yl)-N—((R)-3-hydroxy-3-methylbutan-2-yl)-4-((S)-2-methylpyrrolidine-1-carbonyl)thiazole-2-carboxamide], in experiment [1], the Kd came out at 1.5 nM. Besides, the inhibition at 3 µM at full-length human RORγt (setting [3]) was found to be 107%. For the same compound, the IC50 at full-length human RORγt (setting [4]) came out at 0.089 µM.

With `CC[C@H](Nc1cc(C(F)F)c(-c2sc(C(=O)NCC(C)(C)O)nc2C(=O)N2CCC[C@@H]2C)cn1)C1CC1` (relative stereo) [Example 166], the Kd in experiment [1] is 4.7 nM. Also, the “RORγt … % inhibition (value marked *)” value at full-length human RORγt (Conditions B or C) is listed as 94* %. At full-length human RORγt (setting [2]), the IC50 was found to be 0.027 µM.

`C[C@H]1CCCN1C(=O)c1nc(C(=O)NCC(C)(C)O)sc1-c1cnc(NCC(C)(C)C(F)(F)F)cc1C(F)(F)F` [Example 120, (S)—N-(2-Hydroxy-2-methylpropyl)-4-(2-methylpyrrolidine-1-carbonyl)-5-(6-((3,3,3-trifluoro-2,2-dimethylpropyl)amino)-4-(trifluoromethyl)pyridin-3-yl)thiazole-2-carboxamide]: in experiment [1], the dissociation constant (Kd) was 1.7 nM. For the same compound, the “RORγt … % inhibition (value marked *)” value at full-length human RORγt (Conditions B or C) is on record as 103* %. In addition, the IC50 on full-length human RORγt (setting [2]) worked out at 0.026 µM.

Consider `CCC(C)(C)Nc1cc(C(F)(F)F)c(-c2sc(C(=O)NCC(C)(C)O)nc2C(=O)N2C3CCC2CC3)cn1` [Example 98, 4-((1s,4s)-7-Azabicyclo[2.2.1]heptane-7-carbonyl)-N-(2-hydroxy-2-methylpropyl)-5-(6-(tert-pentylamino)-4-(trifluoromethyl)pyridin-3-yl)thiazole-2-carboxamide], for which, in experiment [1], the Kd was determined as 0.41 nM. On full-length human RORγt (Conditions B or C), the “RORγt … % inhibition (value marked *)” value is 110* %. Also, half-maximal inhibition at full-length human RORγt (RORγt (FL) Reporter Assay B or C, IC50 (μM), Conditions B or C) (IC50) was put at 0.0096 µM.

Regarding `C[C@H](NC(=O)c1nc(C(=O)N2C3CCC2CC3)c(-c2cnc(NC3(C)CCC3)cc2C(F)F)s1)C(C)(C)O` [Example 189], the dissociation constant Kd in experiment [1] stood at 3.6 nM. The “RORγt … % inhibition (value marked *)” value at full-length human RORγt (Conditions B or C) is 101* %. Moreover, the half-maximal inhibitory concentration (IC50) on full-length human RORγt (setting [2]) came to 0.098 µM.

Turning to `C[C@H]1CCCN1C(=O)c1nc(C(=O)NC2CCS(=O)(=O)CC2)sc1-c1cnc(NC(C)(C)C)cc1C(F)(F)F` [Example 254, 5-[6-(tert-Butylamino)-4-(trifluoromethyl)-3-pyridyl]-N-(1,1-dioxothian-4-yl)-4-[(2S)-2-methylpyrrolidine-1-carbonyl]thiazole-2-carboxamide], the Kd in experiment [1] is 0.25 nM. Further, the inhibition at 3 µM on full-length human RORγt (setting [3]) was determined as 107%. Moreover, the IC50 on full-length human RORγt (setting [4]) came out at 0.016 µM.

As to `C[C@H]1CCCN1C(=O)c1nc(C(=O)NCC(C)(C)O)sc1-c1cnc(N[C@H](C)C(C)(C)C)cc1C(F)F` [Example 298, 5-(4-(Difluoromethyl)-6-(((R)-3,3-dimethylbutan-2-yl)amino)pyridin-3-yl)-N-(2-hydroxy-2-methylpropyl)-4-((S)-2-methylpyrrolidine-1-carbonyl)thiazole-2-carboxamide], the Kd in experiment [1] worked out at 3.4 nM. The inhibition at 3 µM on full-length human RORγt (setting [3]) was found to be 99%. Also, the 50% inhibitory concentration (IC50) at full-length human RORγt (setting [4]) turned out to be 0.0077 µM.

For `C[C@H]1CCCN1C(=O)c1nc(C(=O)N[C@H]2CC[C@@H]2O)sc1-c1cnc(NC(C)(C)C)cc1C(F)(F)F` (relative stereo) [Example 371, 5-(6-(tert-Butylamino)-4-(trifluoromethyl)pyridin-3-yl)-N-((1S*,2S*)-2-hydroxycyclobutyl)-4-((S)-2-methylpyrrolidine-1-carbonyl)thiazole-2-carboxamide], in experiment [1], the Kd is 0.88 nM. Moreover, the inhibition at 3 µM at full-length human RORγt (setting [3]) was determined as 108%. For the same compound, on full-length human RORγt (setting [4]), the IC50 is 0.019 µM.

Take `C[C@H]1CC(F)(F)CN1C(=O)c1nc(C(=O)NCC(C)(C)O)sc1-c1cnc(NC2(C(F)(F)F)CCC2)cc1C(F)(F)F` [Example 100, (S)-4-(4,4-Difluoro-2-methylpyrrolidine-1-carbonyl)-N-(2-hydroxy-2-methylpropyl)-5-(4-(trifluoromethyl)-6-((1-(trifluoromethyl)cyclobutyl)amino)pyridin-3-yl)thiazole-2-carboxamide]: the Kd in experiment [1] came to 0.39 nM. For the same compound, the “RORγt … % inhibition (value marked *)” value at full-length human RORγt (Conditions B or C) was 108* %. The 50% inhibitory concentration (IC50) at full-length human RORγt (setting [2]) was found to be 0.014 µM.

With `C[C@H](Nc1cc(C(F)F)c(-c2sc(C(=O)NCC(C)(C)O)nc2C(=O)N2CCC[C@@H]2C)cn1)C1CC1` [Example 43, 5-(6-(((S)-1-Cyclopropylethyl)amino)-4-(difluoromethyl)pyridin-3-yl)-N-(2-hydroxy-2-methylpropyl)-4-((S)-2-methylpyrrolidine-1-carbonyl)thiazole-2-carboxamide], the Kd in experiment [1] is 4.9 nM. Also, at full-length human RORγt (setting [2]), the half-maximal inhibitory concentration (IC50) stood at 0.022 µM. Also, the inhibition at 6 µM at full-length human RORγt was 107%.

With `C[C@H]1CCCN1C(=O)c1nc(C(=O)N[C@H]2CC[C@@H]2O)sc1-c1cnc(NC(C)(C)C)cc1C(F)F` (relative stereo) [Example 404, 5-(6-(tert-Butylamino)-4-(difluoromethyl)pyridin-3-yl)-N-((1S*,2S*)-2-hydroxycyclobutyl)-4-((S)-2-methylpyrrolidine-1-carbonyl)thiazole-2-carboxamide], the dissociation constant (Kd) in experiment [1] came to 3.8 nM. The inhibition at 0.3 µM at full-length human RORγt (at 0.3 μM compound concentration, read-out: RORγt (FL) Reporter Assay B or C, % inhibition) came out at 98%. Moreover, the IC50 on full-length human RORγt (setting [4]) stood at 0.015 µM.

Take `C[C@H](CO)NC(=O)c1nc(C(=O)N2CC(F)(F)C[C@@H]2C)c(-c2cnc(NC(C)(C)C)cc2C(F)F)s1` [Example 428, 5-[6-(tert-Butylamino)-4-(difluoromethyl)-3-pyridyl]-4-[(2S)-4,4-difluoro-2-methyl-pyrrolidine-1-carbonyl]-N-[(1R)-2-hydroxy-1-methyl-ethyl]thiazole-2-carboxamide]: the dissociation constant Kd in experiment [1] came to 1 nM. Also, the inhibition at 3 µM on full-length human RORγt (setting [3]) was found to be 113%. The IC50 at full-length human RORγt (setting [4]) turned out to be 0.017 µM.

For the compound `[2H]C([2H])(NC(=O)c1nc(C(=O)N2CCC[C@@H]2C)c(-c2cnc(NC(C)(C)C)cc2C(F)(F)F)s1)C(C)(C)O` [Example 181, (S)-5-(6-(tert-Butylamino)-4-(trifluoromethyl)pyridine-3-yl)-N-(2-hydroxy-2-methylpropyl-1,1-d2)-4-(2-methylpyrrolidine-1-carbonyl)thiazole-2-carboxamide], the equilibrium dissociation constant (Kd) in experiment [1] is 1.1 nM. Besides, the “RORγt … % inhibition (value marked *)” value at full-length human RORγt (Conditions B or C) is listed as 112* %. Moreover, at full-length human RORγt (setting [2]), the half-maximal inhibitory concentration (IC50) was 0.0085 µM.

For the compound `C[C@H]1CCCN1C(=O)c1nc(C(=O)NC2CN(C)C2)sc1-c1cnc(NC(C)(C)C)cc1C(F)(F)F` [Example 356, 5-[6-(tert-Butylamino)-4-(trifluoromethyl)-3-pyridyl]-N-(1-methylazetidin-3-yl)-4-[(2S)-2-methylpyrrolidine-1-carbonyl]thiazole-2-carboxamide], the dissociation constant Kd in experiment [1] is 47 nM. For the same compound, the inhibition at 3 µM at full-length human RORγt (setting [3]) amounted to 94%. Further, the IC50 at full-length human RORγt (setting [4]) is 0.035 µM.
